Assay results published in patent publication US4189497A, “Method of treating arthritic disease” (American Cyanamid Company, priority 1978, dated 1980).

Tested on: Adjuvant Arthritis in Rats
Experiment: Adjuvant induced arthritis in rats (Freund's adjuvant, right hind paw)
From the text: Adjuvant induced experimental polyarthritis is a specific systemic disease of the rat which shares interesting similarities with rheumatoid arthritis. Specifically, the histology of the two diseases bears a remarkable resemblance as shown by C. M. Pearson et al., Am. J. Pathol. 42, 73 (1963). E. M. Glenn, Am. J. Vet. Res. 27 (116) 339 (1966) has classified adjuvant induced polyarthritis as a crippling and permanent deformity resulting from diffuse connective tissue involvement around certain susceptible joints in the rat. Zahiri et al., Can. Med. Ass. J. 101, 269 (1969) have shown that the fusiform swelling of the distal joints is associated with edema, congestion and synovitis including pannus formation, all of which precede the ultimate destruction of bone and cartilage. Furthermore, Zahiri et al. indicate that the cartilage destruction in the joint is due to an invasive pannus which originates in the marginal synovium and extends across the articular surface to erode it. […] See S. Wong et al., J. Pharm. & Exptl. Ther. 185, 127 (1973) and G. R. Bobalick et al., Agents & Actions 4, 364 (1974).
Groups of three Royal Hart, Wistar strain rats weighing 200±10 grams each were injected intradermally in the right hind paw with Freund's adjuvant (dried human tubercle bacilli in a mineral oil vehicle) at a dose of 2 mg./kg. of body weight. Test compound was administered orally in a 1.5% starch vehicle at various doses once daily on days 0 through 13 post challenge. […] On the 14th and 21st day post challenge the diameter of the injected paw (primary lesion) was measured by micrometer caliper. The volume of inflamed paws were estimated from these measurements and the results are expressed as percent inhibition of swelling as compared to controls. At the same time, the other inflamed sites, such as ears, paws and tail (secondary lesions) were observed and each rat was graded as to degree of inflammation and swelling present. The grading is based on a scale of 0 to 24, where 0 represents a complete absence of induced arthritic nodules and 24 represents the maximum degree of inflammation. The mean grade for each treated group is calculated and the effects of each compound are expressed as percent inhibition of the control grade.

[1] = oral dose 50 mg./kg. once daily days 0-13
[2] = oral dose 100 mg./kg. once daily days 0-13
[3] = oral dose 200 mg./kg. once daily days 0-13
[4] = oral dose 400 mg./kg. once daily days 0-13
[5] = oral dose 0.25 mg./kg. once daily days 0-13
[6] = oral dose 0.5 mg./kg. once daily days 0-13
[7] = oral dose 1 mg./kg. once daily days 0-13
[8] = oral dose 2 mg./kg. once daily days 0-13
[9] = oral dose 18.8 mg./kg. once daily days 0-13
[10] = oral dose 37.5 mg./kg. once daily days 0-13
[11] = oral dose 75 mg./kg. once daily days 0-13
[12] = oral dose 150 mg./kg. once daily days 0-13

## CC(=O)Oc1ccccc1C(=O)O [Aspirin]
[1]
  % Inhibition of Swelling (primary lesion) Day 14: 23%
  Mean Weight Gain Day 14: 56 grams
  % Inhibition of Swelling (primary lesion) Day 21: 3%
  Mean Weight Gain Day 21: 44 grams
[2]
  % Inhibition of Swelling (primary lesion) Day 14: 36%
  Mean Weight Gain Day 14: 48 grams
  % Inhibition of Swelling (primary lesion) Day 21: 13%
  Mean Weight Gain Day 21: 53 grams
[3]
  % Inhibition of Swelling (primary lesion) Day 14: 48%
  Mean Weight Gain Day 14: 40 grams
  % Inhibition of Swelling (primary lesion) Day 21: 27%
  Mean Weight Gain Day 21: 44 grams
[4]
  % Inhibition of Swelling (primary lesion) Day 14: 73%
  Mean Weight Gain Day 14: 41 grams
  % Inhibition of Swelling (primary lesion) Day 21: 48%
  Mean Weight Gain Day 21: 55 grams

## N#CCC(=O)c1cccs1 [B-oxo-2-thiophenepropionitrile, β-oxo-2-thiophenepropionitrile]
Adjuvant arthritic rats, oral dosing, summary of Table I
  progression of the arthritis and associated joint deterioration: appears to suppress the progression of the arthritis and associated joint deterioration
[1]
  % Inhibition of Control Grade (secondary lesion) Day 14: 46%
  % Inhibition of Swelling (primary lesion) Day 14: 46%
  Mean Weight Gain Day 14: 56 grams
  % Inhibition of Control Grade (secondary lesion) Day 21: 0%
  % Inhibition of Swelling (primary lesion) Day 21: 18%
  Mean Weight Gain Day 21: 48 grams
Oral dose 50 mg./kg. once daily days 0-13, adjuvant arthritic rats
  Dead/Treated At 21 Days: 3/36
[2]
  % Inhibition of Control Grade (secondary lesion) Day 14: 58%
  % Inhibition of Swelling (primary lesion) Day 14: 58%
  Mean Weight Gain Day 14: 52 grams
  % Inhibition of Control Grade (secondary lesion) Day 21: 10%
  % Inhibition of Swelling (primary lesion) Day 21: 42%
  Mean Weight Gain Day 21: 69 grams
Oral dose 100 mg./kg. once daily days 0-13, adjuvant arthritic rats
  Dead/Treated At 21 Days: 3/18
[3]
  % Inhibition of Control Grade (secondary lesion) Day 14: 72%
  % Inhibition of Swelling (primary lesion) Day 14: 72%
  Mean Weight Gain Day 14: 34 grams
  % Inhibition of Control Grade (secondary lesion) Day 21: 32%
  % Inhibition of Swelling (primary lesion) Day 21: 29%
  Mean Weight Gain Day 21: 54 grams
Oral dose 200 mg./kg. once daily days 0-13, adjuvant arthritic rats
  Dead/Treated At 21 Days: 2/18

## COc1ccc2c(c1)c(CC(=O)O)c(C)n2C(=O)c1ccc(Cl)cc1 [Indomethacin]
[5]
  % Inhibition of Swelling (primary lesion) Day 14: 30%
  Mean Weight Gain Day 14: 51 grams
  % Inhibition of Swelling (primary lesion) Day 21: 4%
  Mean Weight Gain Day 21: 57 grams
[6]
  % Inhibition of Swelling (primary lesion) Day 14: 40%
  Mean Weight Gain Day 14: 53 grams
  % Inhibition of Swelling (primary lesion) Day 21: 20%
  Mean Weight Gain Day 21: 51 grams
[7]
  % Inhibition of Swelling (primary lesion) Day 14: 46%
  Mean Weight Gain Day 14: 63 grams
  % Inhibition of Swelling (primary lesion) Day 21: 19%
  Mean Weight Gain Day 21: 65 grams
[8]
  % Inhibition of Swelling (primary lesion) Day 14: 51%
  Mean Weight Gain Day 14: 68 grams
  % Inhibition of Swelling (primary lesion) Day 21: 24%
  Mean Weight Gain Day 21: 68 grams

## CCCCC1C(=O)N(c2ccccc2)N(c2ccccc2)C1=O [Phenylbutazone]
[9]
  % Inhibition of Swelling (primary lesion) Day 14: 31%
  Mean Weight Gain Day 14: 50 grams
  % Inhibition of Swelling (primary lesion) Day 21: 7%
  Mean Weight Gain Day 21: 45 grams
[10]
  % Inhibition of Swelling (primary lesion) Day 14: 56%
  Mean Weight Gain Day 14: 53 grams
  % Inhibition of Swelling (primary lesion) Day 21: 14%
  Mean Weight Gain Day 21: 53 grams
[11]
  % Inhibition of Swelling (primary lesion) Day 14: 62%
  Mean Weight Gain Day 14: 51 grams
  % Inhibition of Swelling (primary lesion) Day 21: 28%
  Mean Weight Gain Day 21: 50 grams
[12]
  % Inhibition of Swelling (primary lesion) Day 14: 75%
  Mean Weight Gain Day 14: 40 grams
  % Inhibition of Swelling (primary lesion) Day 21: 44%
  Mean Weight Gain Day 21: 50 grams
